How the values were obtained:
CYP3A4 = CYP3A4 (Homo sapiens, UniProt P08684); experiment: in vitro; details: human liver microsomes, probe midazolam
HCT-116 [1] = experiment: Antiproliferative activity against MTAP-deleted human HCT-116 cells assessed as effect on cell viability incubated for 6 days by Celltiter-Glo luminescent cell viability assay; assay type: functional, cell-based; details: HCT-116, 144 h
human MDR1 (P-gp) = experiment: Efflux ratio of permeability across basolateral to apical side over apical to basolateral side in MDCK cells transfected with human MDR1 in absence of elacridar; details: dog
[2] = Metabolic stability in human liver microsomes assessed as intrinsic clearance at 0.5 uM incubated for 40 mins in presence of NADPH; assay type: ADME, Microsome; details: read-out: CLH
[3] = biological target: T1, Nuclear receptor subfamily 1 group I member 2 (Homo sapiens, UniProt O75469); experiment: Activation of human PXR in human HepG2 cells co-transfected with CYP3A4-luciferase at 10 uM incubated for 1 day relative to control; details: hepg2, 24 h
T1 sequence (O75469 whole entry): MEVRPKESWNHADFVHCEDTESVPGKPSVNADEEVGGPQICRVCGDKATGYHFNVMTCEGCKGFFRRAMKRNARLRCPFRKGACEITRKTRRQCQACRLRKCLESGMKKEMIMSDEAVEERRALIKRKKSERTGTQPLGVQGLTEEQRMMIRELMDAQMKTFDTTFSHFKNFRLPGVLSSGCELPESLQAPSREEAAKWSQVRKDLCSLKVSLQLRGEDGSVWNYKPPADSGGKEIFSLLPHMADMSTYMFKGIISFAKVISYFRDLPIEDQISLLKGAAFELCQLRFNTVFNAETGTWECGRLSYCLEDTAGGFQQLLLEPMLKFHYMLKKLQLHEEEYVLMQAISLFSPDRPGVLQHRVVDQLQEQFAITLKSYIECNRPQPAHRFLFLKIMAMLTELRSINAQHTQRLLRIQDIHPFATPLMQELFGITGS

HCT-116 [4] = experiment: Antiproliferative activity against human HCT-116 cells harboring wildtype MTAP assessed as effect on cell viability incubated for 6 days by Celltiter-Glo luminescent cell viability assay; assay type: functional, cell-based; details: HCT-116, 144 h
PRMT5/MEP50 complex = PRMT5/MEP50 complex (Homo sapiens, UniProt O14744)
Description: Inhibition of PRMT5/MEP50 (unknown origin) preincubated with compound for 24 hrs in presence of SAM and MTA followed by Histone H4 (1-21)-Lys(Biotin) peptide addition and measured after 2 hrs by MTase-Glo reagent based assay

[5] = Metabolic stability in mouse liver microsomes assessed as intrinsic clearance at 0.5 uM incubated for 40 mins in presence of NADPH; assay type: ADME, Microsome; details: read-out: CLH
[6] = Unbound clearance in CD-1 mouse at 1 mg/kg, iv; assay type: ADME, organism-based; details: in vivo
[7] = Half-life in CD-1 mouse at 1 mg/kg, iv; assay type: ADME, organism-based; details: in vivo
[8] = Protein binding in mouse plasma assessed as unbound fraction by ultracentrifugation; details: mouse plasma
[9] = Clearance in CD-1 mouse at 1 mg/kg, iv; details: in vivo
[10] = Oral bioavailability in CD-1 mouse at 5 mg/kg administered as 1% Tween 80, 2% HPMC, 97% water/methane sulfonic acid, pH 2.0 formulation; assay type: ADME, organism-based; details: in vivo
in vivo = details: CD-1, mouse, iv, 1 mg/kg

Sequence of CYP3A4 (P08684 whole entry): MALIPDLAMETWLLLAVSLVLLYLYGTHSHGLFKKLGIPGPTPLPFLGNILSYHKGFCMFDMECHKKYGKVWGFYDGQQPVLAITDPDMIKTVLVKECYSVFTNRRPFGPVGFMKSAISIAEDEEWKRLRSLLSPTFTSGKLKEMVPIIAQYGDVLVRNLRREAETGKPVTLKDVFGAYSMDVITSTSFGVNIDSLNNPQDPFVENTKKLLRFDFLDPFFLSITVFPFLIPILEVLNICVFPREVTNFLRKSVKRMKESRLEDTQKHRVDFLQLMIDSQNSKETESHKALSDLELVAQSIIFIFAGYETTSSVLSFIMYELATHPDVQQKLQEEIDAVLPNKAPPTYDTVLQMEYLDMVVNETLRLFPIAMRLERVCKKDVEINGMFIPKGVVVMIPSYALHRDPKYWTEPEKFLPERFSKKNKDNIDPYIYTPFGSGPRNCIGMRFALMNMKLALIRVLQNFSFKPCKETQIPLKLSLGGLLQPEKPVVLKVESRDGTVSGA
Sequence of PRMT5/MEP50 complex (O14744 whole entry): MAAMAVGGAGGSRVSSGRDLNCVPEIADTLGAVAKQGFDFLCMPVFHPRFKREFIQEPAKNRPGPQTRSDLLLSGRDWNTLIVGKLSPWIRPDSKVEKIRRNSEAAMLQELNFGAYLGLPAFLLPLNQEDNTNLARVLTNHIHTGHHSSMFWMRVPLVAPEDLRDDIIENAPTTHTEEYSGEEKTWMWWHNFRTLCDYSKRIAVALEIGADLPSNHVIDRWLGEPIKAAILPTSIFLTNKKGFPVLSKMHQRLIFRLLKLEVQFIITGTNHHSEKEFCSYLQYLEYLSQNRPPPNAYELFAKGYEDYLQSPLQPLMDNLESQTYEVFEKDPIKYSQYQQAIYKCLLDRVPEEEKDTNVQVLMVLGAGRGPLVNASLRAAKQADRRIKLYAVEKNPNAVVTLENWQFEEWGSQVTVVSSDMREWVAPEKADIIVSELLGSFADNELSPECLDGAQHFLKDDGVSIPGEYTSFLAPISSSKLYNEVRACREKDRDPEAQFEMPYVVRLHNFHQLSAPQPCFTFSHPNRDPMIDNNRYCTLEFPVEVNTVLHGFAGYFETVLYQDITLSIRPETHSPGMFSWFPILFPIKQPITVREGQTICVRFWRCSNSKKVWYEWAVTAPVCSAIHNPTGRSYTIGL
Sequence of PRMT5/MEP50 complex (Q9BQA1 whole entry, further chain): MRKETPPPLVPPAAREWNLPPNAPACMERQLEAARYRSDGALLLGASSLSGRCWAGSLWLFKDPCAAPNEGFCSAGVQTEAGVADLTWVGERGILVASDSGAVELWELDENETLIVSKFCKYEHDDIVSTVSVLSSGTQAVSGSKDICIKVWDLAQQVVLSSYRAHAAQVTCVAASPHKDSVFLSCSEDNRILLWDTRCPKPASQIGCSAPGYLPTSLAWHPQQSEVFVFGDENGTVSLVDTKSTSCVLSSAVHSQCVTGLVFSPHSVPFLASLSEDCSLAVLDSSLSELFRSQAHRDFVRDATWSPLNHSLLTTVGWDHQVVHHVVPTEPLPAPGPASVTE

inhibition at 30 min, 10 µM (CYP3A4) [%]	IC50 (HCT-116 [1]) [nM]	efflux ratio (human MDR1 (P-gp))	microsomal CLint at 0.5 µM [2] [µL/min/mg]	Activity [3] [%]	IC50 (HCT-116 [4]) [nM]	Ki (PRMT5/MEP50 complex) [nM]	microsomal CLint at 0.5 µM [5] [µL/min/mg]	CL free [6] [mL/min/kg]	half-life [7] [h]	fraction unbound [8]	clearance [9] [mL/min/kg]	bioavailability [10] [%]	Vd (in vivo) [L/kg]	Structure (SMILES)
< 20	112	4	74	< 20	2090	< 0.1	102	–	–	–	–	–	–	Nc1nc2cnc(C(=O)N3CCCC[C@@H]3c3ccc(C(F)(F)F)cc3)cc2c2c1COC2
< 20	395	33	14	< 20	9430	< 0.1	16	36.7	2.1	0.18	6.67	78	1.2	Nc1nc2ccc(C(=O)N3CCOC[C@@H]3c3ccc(C(F)(F)F)cn3)cc2c2c1COC2
31	404	29	14	11	7950	0.1	46	–	–	–	–	–	–	Cc1cc2cc(C(=O)N(Cc3ccc(C(F)(F)F)cn3)[C@H](C)c3ncccn3)ncc2nc1N
< 20	533	36	14	< 20	8530	0.2	17	25	2.5	0.27	6.67	46	1	Nc1nc2ccc(C(=O)N3CCOC[C@@H]3c3ccc(C(F)(F)F)nc3)cc2c2c1COC2
8	14	85	274	73	129	< 0.1	563	–	–	–	–	–	–	C[C@H](c1ncccn1)N(Cc1ccc(C(F)(F)F)cn1)C(=O)c1ccc2nc(N)c3c(c2c1)CCC3
< 20	> 50000	–	57	< 20	> 50000	184	72	–	–	–	–	–	–	Nc1nc2ccc(C(=O)N3CCCC3c3ccc(C(F)(F)F)cn3)cc2c2c1COC2 (stereo unspecified)
4	202	61	67	9	1860	0.1	154	–	–	–	–	–	–	C[C@H](c1ncccn1)N(Cc1ccc(C(F)(F)F)cn1)C(=O)c1cc2c3c(c(N)nc2cn1)COC3
< 20	809	–	37	< 20	14300	0.1	45	–	–	–	–	–	–	Nc1nc2ccc(C(=O)N3CCOCC3c3ccc(C(F)(F)F)cn3)cc2c2c1COC2 (racemic)
52	431	–	32	22	6090	–	148	–	–	–	–	–	–	Cc1cc2cc(C(=O)N(Cc3ccc(C(F)(F)F)cn3)CC(C)C)ccc2nc1N
< 20	233	13	50	< 20	4810	< 0.1	78	130	2.7	0.05	6.67	61	1.6	Nc1nc2ccc(C(=O)N3CCOC[C@@H]3c3ccc(C(F)(F)F)cc3)cc2c2c1COC2
25	344	9	< 14	46	5110	0.2	105	–	–	–	–	–	–	C[C@H](c1ncccn1)N(Cc1ccc(C(F)(F)F)cn1)C(=O)c1ccc2nc(N)c(Cl)cc2c1
< 20	426	23	14	< 20	8790	0.1	19	40	2.2	0.21	8.33	64	0.9	CN(Cc1ccc(C(F)(F)F)cn1)C(=O)c1ccc2nc(N)c3c(c2c1)COC3
< 20	399	8	42	< 20	8270	< 0.1	121	–	–	–	–	–	–	Nc1nc2ccc(C(=O)N3CCOC[C@@H]3c3ccc(Cl)cc3)cc2c2c1COC2
< 20	1090	5	50	< 20	16100	0.4	87	–	–	–	–	–	–	Nc1nc2cnc(C(=O)N3CCC(F)(F)C[C@@H]3c3ccc(C(F)(F)F)cc3)cc2c2c1COC2
≤ 10	10	31	262	50	26	< 0.1	624	–	–	–	–	–	–	C[C@H](c1ncccn1)N(Cc1ccc(C(F)(F)F)cn1)C(=O)c1cc2c3c(c(N)nc2cc1F)COC3
70	273	63	14	6	3490	0.1	14	–	–	–	–	–	–	Cc1cc2cc(C(=O)N(Cc3ccc(C(F)(F)F)cn3)[C@H](C)c3ncccn3)cnc2nc1N
< 20	100	10	30	< 20	3210	< 0.1	45	96.7	2	0.12	11.7	95	1.5	CCN(Cc1ccc(C(F)(F)F)cn1)C(=O)c1ccc2nc(N)c3c(c2c1)COC3
< 20	7	5	43	< 20	264	< 0.1	178	233	2.6	0.08	18.3	51	3	C[C@@H]1COC[C@H](c2ccc(C(F)(F)F)cc2)N1C(=O)c1cc2c3c(c(N)nc2cn1)COC3
21	482	15	< 14	17	743	0.6	62	–	–	–	–	–	–	C[C@H](c1ncccn1)N(Cc1ccc(C(F)(F)F)cn1)C(=O)c1ccc2nc(N)ccc2c1
< 1	83	–	22	1	409	< 0.1	17	–	–	–	–	–	–	C[C@H](c1ncccn1)N(Cc1ccc(C(F)(F)F)cn1)C(=O)c1cnc2nc(N)c3c(c2c1)COC3
< 20	15500	–	61	< 20	> 50000	182	52	–	–	–	–	–	–	Nc1nc2ccc(C(=O)N3CCOC[C@H]3c3ccc(C(F)(F)F)cn3)cc2c2c1COC2
–	74	–	–	–	68	–	–	–	–	–	–	–	–	CC(=O)N1CCC(Nc2cc(C(=O)NC[C@H](O)CN3CCc4ccccc4C3)ncn2)CC1 [PEMRAMETOSTAT]
< 20	4440	69	17	< 20	> 10000	10.4	26	–	–	–	–	–	–	Nc1nc2ncc(C(=O)N3CCOCC3c3ccc(C(F)(F)F)cc3)cc2c2c1COC2 (stereo unspecified)
< 20	4600	7	49	< 20	> 50000	1.1	64	–	–	–	–	–	–	C[C@@H]1OCc2c1c(N)nc1cnc(C(=O)N3CCOC[C@@H]3c3ccc(C(F)(F)F)cc3)cc21

From ChEMBL document CHEMBL6109134, “Discovery of AMG 193, an MTA-Cooperative PRMT5 Inhibitor for the Treatment of MTAP-Deleted Cancers” (J Med Chem, 2025)
